Here are results for 5 molecules from patent publication US4837238A, “Pharmacologically useful pyrazolopyridines” (Beecham Group p.l.c., priority 1985, dated 1989).

Holding throughout (assay type): in vivo
Test [1] deals with cantharidin mouse ear. As to the kind of experiment: Mouse cantharidin screen (topical anti-inflammatory activity, mouse ear). To be noted: 500 μg/ear, 25 μg cantharidin, 24 h, ***P < 0.001. The procedure:
Compounds were tested for topical anti-inflammatory activity in a cantharidin mouse ear screen, modified from Swingle, K. F., Reiter, M. J. and Schwartzmiller, D. H., Arch. Int. Pharmacodyn., (1981), 254, 168-176).
(a) 25 μg cantharidin (in 10 μl THF/MeOH) was applied to both ears. Compound, in the same solvent, was applied at the same time, to the left ear only. Ears were weighed 24 h after cantharidin application. Percentage inhibition of the acute inflammatory swelling refers to the increase in weight of left ears (cantharidine plus compound) compared with solvent-treated negative controls, as a proportion of the increase in weight of right ears (cantharidin alone) over similar controls.

In test [2] the test system is mouse sensitized to oxazolone. As to the kind of experiment: Mouse oxazolone screen (topical anti-inflammatory activity, sensitized mouse ear). Particulars: 200 μg/ear, 1 hour before 100 μg oxazolone challenge, 24 hours, **p < 0.01, ***p < 0.001. The procedure:
Compounds were tested for topical anti-inflammatory activity in a screen using the mouse sensitized to oxazolone, by a method modified from that of Dietrich and Hess [Int. Arch. Allergy, 38, 246 (1970)].
Mice were sensitized with oxazolone (2 mg in 20 μl EtOH) on a shaved area of the abdomen. 5 days later, the animals received 10 μl THF/MeOH (1:1 v/v) on the right ear and the test compound in the same solvent on the left ear. 1 hour later, the animals were challenged with 100 μg oxazolone in 10 μl acetone on each ear. Ear weights were measured 24 hours later. Percentage inhibition of the inflammatory swelling refers to the increase in weight of left ears (oxazolone plus compound in THF/MeOH) compared to untreated negative controls, as a proportion of the increase in weight of right ears (oxazolone only in THF/MeOH) over similar controls.

Test [3] has as its system Carrageenin-induced pleurisy in the rat. As to the kind of experiment: Carrageenin-induced pleurisy in the rat (monocyte accumulation). Particulars: 25 mg/kg p.o., 1 hour before and 24 and 48 hours after carrageenin, 72 hours; compared to control (p<0.05). The protocol:
This model of monocyte accumulation is based on the method of R. Vinegar, J. F. Truax, J. L. Selph and F. A. Voelker [Federation Proceedings 41, 2588-2595, 1982].
0.2 ml of a 2.0% solution of λ-carrageenin (Viscarin 402) in saline was injected intrapleurally in anaesthetised rats (wt. approx. 175-200 g). Compounds were administered 1 hour before carrageenin and at 24 and 48 hours after carrageenin. 72 hours after carrageenin injection, 4.0 ml of EDTA solution (5 g EDTA in 100 ml of 0.9% saline and 325 mg phenol red added together with saline to 1 liter) was injected intrapleurally after killing the animals, and the exudate was removed with a syringe through the diaphragm. Exudate volume was calculated from the dilution of the phenol red injected, determined spectrophotometrically (560 nm) and cellular content estimated with a DNA assay [Karsten U. and Wollenberger A. Anal. Biochem. 77, 464-470, 1977].

Turning to `CC(C)CNc1c2c(nc3cn[nH]c13)CCC2` [Example 8, 8-Isobutylamino-5,6,7-trihydro-1H-cyclopenta[b]pyrazolo[3,4-e]pyridine], the “% INHIBITION (acute inflammatory swelling, ear weight)” value in test [1] is on record as 97%. Also, the “% INHIBITION (inflammatory swelling, ear weight)” value in test [2] is on record as 49%. Take `OCCNc1c2c(nc3cn[nH]c13)CCCC2` [Example 5, 9-(2-Hydroxyethylamino)-5,6,7,8-tetrahydro-1H-pyrazolo-[4,3-b]quinoline]: in test [3], the “inhibition of DNA content (exudate cellular content)” value is reported as 31% and the “inhibition of exudate volume” value stood at 36%. For the same molecule, in test [1], the “% INHIBITION (acute inflammatory swelling, ear weight)” value is listed as 91%. Consider `CCCCNc1c(C)cnc2cn[nH]c12` [Example 1, 7n-Butylamino-6-methyl-1H-pyrazolo[4,3-b]pyridine], for which the “% INHIBITION (acute inflammatory swelling, ear weight)” value in test [1] came to 95%. For `CCCNc1c(CN)cnc2cn[nH]c12` [Example 9, 6-Aminomethyl-7-propylamino-1H-pyrazolo[4,3-b]pyridine], in test [1], the “% INHIBITION (acute inflammatory swelling, ear weight)” value came to 91%. For `CC(C)CNc1c2c(nc3cn[nH]c13)CCCC2` [Example 6, 9-Isobutylamino-5,6,7,8-tetrahydro-1H-pyrazolo[4,3-b]quinoline], the “% INHIBITION (acute inflammatory swelling, ear weight)” value in test [1] was 97%. The “% INHIBITION (inflammatory swelling, ear weight)” value in test [2] is listed as 66%.
